According to PubChem BioAssay (NCI):
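Grown in 96-well plates, cells were treated for 48 hours with each compound at five concentrations. Insufficient inhibition: endpoint recorded as highest concentration tested. At the TGI there is no net growth.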

Experiments:
Test in all cases: NCI anticancer screen, dose series, 48 h
A498 renal = test system: A498 renal
CAKI-1 renal = test system: CAKI-1 renal
COLO 205 colon = test system: COLO 205 colon
HCT-116 colon = test system: HCT-116 colon
HCT-15 colon = test system: HCT-15 colon
HOP-62 NSCLC = test system: HOP-62 NSCLC
IGROV1 ovarian = test system: IGROV1 ovarian
MDA-MB-231 breast = test system: MDA-MB-231 breast
MDA-MB-435 = test system: MDA-MB-435
MDA-N = test system: MDA-N
NCI-H460 lung = test system: NCI-H460 lung
NCI/ADR-RES ovarian = test system: NCI/ADR-RES ovarian
PC-3 prostate = test system: PC-3 prostate
RPMI-8226 leukemia = test system: RPMI-8226 leukemia
SF-268 CNS = test system: SF-268 CNS
SF-539 CNS = test system: SF-539 CNS
SK-MEL-2 melanoma = test system: SK-MEL-2 melanoma
SK-MEL-5 melanoma = test system: SK-MEL-5 melanoma
SN12C renal = test system: SN12C renal
EKVX NSCLC = test system: EKVX NSCLC

Compound	TGI (A498 renal)	TGI (CAKI-1 renal)	TGI (COLO 205 colon)	TGI (HCT-116 colon)	TGI (HCT-15 colon)	TGI (HOP-62 NSCLC)	TGI (IGROV1 ovarian)	TGI (MDA-MB-231 breast)	TGI (MDA-MB-435)	TGI (MDA-N)	TGI (NCI-H460 lung)	TGI (NCI/ADR-RES ovarian)	TGI (PC-3 prostate)	TGI (RPMI-8226 leukemia)	TGI (SF-268 CNS)	TGI (SF-539 CNS)	TGI (SK-MEL-2 melanoma)	TGI (SK-MEL-5 melanoma)	TGI (SN12C renal)	TGI (EKVX NSCLC)
CC(C)C(/C=C/c1ccc(Cl)cc1)=N\NC(=S)NN	> 100 µM	> 100 µM	> 100 µM	11.4 µM	> 100 µM	> 100 µM	> 100 µM	> 100 µM	85.2 µM	> 100 µM	41.8 µM	48.1 µM	> 100 µM	> 100 µM	> 100 µM	> 100 µM	44.5 µM	> 100 µM	> 100 µM	
CCOC(=O)c1cc(C2(OC)CCN(Cc3ccccc3)C2=O)c(-c2cc(C)no2)[nH]1 (stereo not given)	> 100 µM	> 100 µM	> 100 µM	> 100 µM	> 100 µM	> 100 µM	> 100 µM	> 100 µM	> 100 µM	> 100 µM	> 100 µM	> 100 µM	> 100 µM	> 100 µM	> 100 µM		> 100 µM	> 100 µM		> 100 µM
N=c1c2ccccc2nc2oc3ccc(Cl)cc3n12		37.5 µM	> 100 µM	69.3 µM	> 100 µM	19.2 µM	69.8 µM	> 100 µM	> 100 µM	> 100 µM	> 100 µM	> 100 µM	> 100 µM	23.5 µM	> 100 µM	32 µM	51.3 µM	> 100 µM	61.5 µM	> 100 µM
Cc1cc(-c2ccc(Cl)cc2)c(C#N)c(=S)n1C1OC(CO)C(O)C(O)C1O (stereo not given)	> 100 µM	> 100 µM	> 100 µM	> 100 µM	> 100 µM	> 100 µM	> 100 µM	> 100 µM	> 100 µM	> 100 µM	> 100 µM	> 100 µM	> 100 µM		> 100 µM	> 100 µM	> 100 µM	> 100 µM	> 100 µM	> 100 µM
C=C1C(=O)O[C@H]2[C@H]3O[C@@H](C[C@@H]12)[C@](C)(O)CCCC(C)=CCC[C@H]3C		28.5 µM	21 µM	31.1 µM	84.9 µM	31.3 µM	5.05 µM	35.8 µM	15.8 µM	75.8 µM	30.5 µM	22.7 µM	25.7 µM	17.4 µM	20.7 µM	26.9 µM	28.7 µM	31.1 µM	71.4 µM	22.4 µM
COc1ccc(N=C2C(=Nc3ccc(OC)cc3)N(c3ccccc3[N+](=O)[O-])C(=S)N2c2ccc(OC)cc2)cc1		> 100 µM	30.8 µM	> 100 µM	> 100 µM	> 100 µM	> 100 µM	90.9 µM	> 100 µM	> 100 µM		> 100 µM	> 100 µM	> 100 µM	> 100 µM	> 100 µM	> 100 µM	> 100 µM	> 100 µM	> 100 µM
CN(C)N1C(=O)CC2(CCN(CCCC(=O)c3ccc(F)cc3)CC2)C1=O	> 100 µM	> 100 µM	> 100 µM	> 100 µM	> 100 µM	> 100 µM	> 100 µM	> 100 µM	> 100 µM	> 100 µM	> 100 µM	> 100 µM	> 100 µM	> 100 µM	> 100 µM	> 100 µM	> 100 µM	> 100 µM	> 100 µM	
CC1(C)CC[C@]2(C(=O)O)CC[C@]3(C)C(=CC[C@@H]4[C@@]5(C)CC[C@@H]6OC(C)(C)OC[C@@]6(C)[C@@H]5CC[C@]43C)[C@H]2C1	51.7 µM		28.8 µM	20.9 µM	13.9 µM	22.9 µM	30.2 µM	12.9 µM	25.6 µM	27 µM	20 µM	> 100 µM	19.1 µM	66 µM	36.5 µM	33.5 µM	32.6 µM		13 µM	19.4 µM
CC(C)(Cc1ccccc1)Cc1cc(O)ccc1O	47.6 µM	35.1 µM	39.1 µM	31.6 µM	39.8 µM	64.3 µM	> 100 µM	39.2 µM	49.2 µM	56.6 µM	37.4 µM	42.9 µM	> 100 µM		35.7 µM	27.1 µM			41.3 µM	65.8 µM
O=C(CN1CCCC1)Nc1ccc2sc3ccccc3c(=O)c2n1		47.1 µM	44.8 µM	68.3 µM	> 100 µM	65 µM	66.5 µM	> 100 µM	35.3 µM	77.6 µM	> 100 µM	54.5 µM	57.4 µM	63 µM	85.9 µM	35.3 µM	49.1 µM	53.4 µM	> 100 µM	> 100 µM
